# Values of other authors as cited in patent publication US20160199396A1 (TEVA Pharmaceutical Industries Ltd., priority 2013, published 2016).
# Conditions: background statement
compound,measurement,value
"CC(C)c1nc(CN(C)C(=O)N[C@H](C(=O)N[C@@H](Cc2ccccc2)C[C@H](O)[C@H](Cc2ccccc2)NC(=O)OCc2cncs2)C(C)C)cs1 [Ritonavir, 1,3-thiazol-5-ylmethyl N-[(2S,3S,5S)-3-hydroxy-5-[(2S)-3-methyl-2-{[methyl({[2-(propan-2-yl)-1,3-thiazol-4-yl]methyl})carbamoyl]amino}butanamido]-1,6-diphenylhexan-2-yl]carbamate]",BCS (biopharmaceutical classification system) class,class IV
